Results from US6951943B2, “Process for the preparation of phenylalanine enamide derivatives” (Celltech R & D Limited, priority 2002, dated 2005).

Compound	melting point [°C]
CCOC(=O)[C@H](Cc1ccc(Nc2nccc3ccncc23)cc1)NC1=C(SC(C)C)C(=O)C12CCOCC2 [Example 10, Ethyl 2(S)-[(2-isopropylsulfanyl-3-oxo-7-oxa-spiro[3.5]non-1-en-1-yl)amino]-3-[4-([2,7]naphthyridin-1-ylamino)phenyl]propanoate]	221
CCOC(=O)[C@H](Cc1ccc(Nc2nccc3ccncc23)cc1)NC1=CC(=O)C12CCOCC2 [Example 9, Ethyl 3-[4-([2,7]naphthyridin-1-ylamino)phenyl]-2(S)-[(3-oxo-7-oxa-spiro[3.5]non-1-en-1-yl)amino]propanoate]	112
CCOC(=O)[C@H](Cc1ccc(NC(=O)c2c(Cl)cncc2Cl)cc1)NC1=CC(=O)C12CCCCC2 [Example 1, Ethyl 2(S)-[(3-oxospiro[3.5]non-1-en-1-yl)amino]-3-{4-[(3,5-dichloroisonicotinoyl)amino]phenyl}propanoate]	194
